Columns and labels:
male C57Bl6J mice = experiment: Streptozotocin-induced diabetic neuropathic pain model, Von Frey mechanical threshold (compound 32 study); assay type: in vivo; details: pregabalin subcutaneous 0.5 mg/mL in phosphate buffer (100 μL/10 g)
Method: The experiment has been conducted in 8 weeks old male C57Bl6J mice (from Charles River). For this study, 6 mice per group have been used.
(§1) Diabetes has been induced by a single IP injection of 200 μg/mL streptozotocin solution (100 μL/10 g). Glycemia has been tested before, D+3 and D+7 post-injection. All injected mice presented blood glucose concentration […] at D+7, and then have been used for analgesic testing of the compounds.
Compound 32 has been orally administrated at 6 mg/mL in Capryol 90 solution (50 μL/10 g) and pregabalin has been subcutaneously injected at 0.5 mg/mL in phosphate buffer (100 μL/10 g) at D+14 and D+16. A time course measurement at +1 h, +2 h, +4 h and +6 h has been performed after compound administration.
(§2) Mechanical threshold response of mice has been measured with calibrated Von Frey filaments using the up/down method, blind for manipulator. Measurements have been performed before streptozotocin injection and 14 days after.
(§3) Statistical analysis was performed using SigmaPlot 12.5 software. Percentage of maximum possible effect is calculated as follow
(§4) % MPE=[(Test−Prest)/(cut-off−Prest)]*100
(§5) Where cut-off, Test and Pretest values correspond respectively to baseline measure, timepoint post-administration measure and measure before administration.

male C57B16J mice = experiment: Streptozotocin-induced diabetic neuropathic pain model, Von Frey mechanical threshold (compound 108 study); assay type: in vivo; details: pregabalin subcutaneous 0.5 mg/mL in phosphate buffer (100 μL/10 g)
Method: The experiment has been conducted in 8 weeks old male C57B16J mice (from Charles River). For this study, 10 mice per group have been used.
as §1
Compound 108 has been orally administrated at 2, 5 and 10 mg/mL in 0.9% NaCl solution (50 μL/10 g) and pregabalin has been subcutaneously injected at 0.5 mg/mL in phosphate buffer (100 μL/10 g) at D+14 and D+17. A time course measurement at +1 h, +2 h, +4 h and +6 h has been performed after compound administration.
as §2, §3, §4, §5

Compound: CC(C)C[C@H](CN)CC(=O)O [Pregabalin, pregabalin]
- Analgesic effect expressed as % MPE (male C57Bl6J mice; +1 h): 80.7 ± 10.8 % MPE
- Analgesic effect expressed as % of baseline (male C57Bl6J mice; +1 h): 81.2 ± 7.9 % of baseline
- Analgesic effect expressed as % MPE (male C57Bl6J mice; +2 h): 84.6 ± 10.6 % MPE
- Analgesic effect expressed as % of baseline (male C57Bl6J mice; +2 h): 86.0 ± 9.1 % of baseline
- Analgesic effect expressed as % MPE (male C57Bl6J mice; +4 h): 33.9 ± 5.8 % MPE
- Analgesic effect expressed as % of baseline (male C57Bl6J mice; +4 h): 45.0 ± 5.3 % of baseline
- Analgesic effect expressed as % MPE (male C57Bl6J mice; +6 h): 5.9 ± 4.3 % MPE
- Analgesic effect expressed as % of baseline (male C57Bl6J mice; +6 h): 23.5 ± 2.1 % of baseline
- Analgesic effect expressed as % MPE (male C57B16J mice; +1 h): 76.6 ± 15.4 % MPE
- Analgesic effect expressed as % of baseline (male C57B16J mice; +1 h): 80.6 ± 12.4 % of baseline
- Analgesic effect expressed as % MPE (male C57B16J mice; +2 h): 79.5 ± 13.7 % MPE
- Analgesic effect expressed as % of baseline (male C57B16J mice; +2 h): 85.7 ± 10.7 % of baseline
- Analgesic effect expressed as % MPE (male C57B16J mice; +4 h): 31.0 ± 17.0 % MPE
- Analgesic effect expressed as % of baseline (male C57B16J mice; +4 h): 45.6 ± 13.0 % of baseline
- Analgesic effect expressed as % MPE (male C57B16J mice; +6 h): 10.9 ± 7.5 % MPE
- Analgesic effect expressed as % of baseline (male C57B16J mice; +6 h): 30.3 ± 4.8 % of baseline

Reference: patent US20220388979A1, “QUINOLINE DERIVATIVES AS PROTEIN KINASE INHIBITORS” (B.C.I. PHARMA, priority 2019, published 2022)
